Measured values published in article PMC3674988, “Scrutinizing MHC-I Binding Peptides and Their Limits of Variation” (PLoS Computational Biology, 2013).

System: H-2K^b:IgG fusion protein
Test: Thermal denaturation assay, direct binding of SIINFEKL fragments
Parameters: species or system mouse
Details: normalized fluorescence melting curves, first derivative; vs NoLigand; 100 µM peptide
Protocol: Thermal denaturation studies were conducted using a StepOnePlus real-time PCR system (Applied Biosystems) with MicroAmp optical 96-well plates (Applied Biosystems cat. no. N8010560). Wells were loaded with 10 µl of H-2K^b:IgG fusion protein solution (protein conc. = 0.5 mg×ml^−1; BD Biosciences cat. no. 550750) – respectively 10 µl of PBS buffer (pH 7.36) for ligand-only controls – 2 µl of peptide or peptide fragments, 2 µl of 10× SYPRO Orange (SigmaAldrich cat. no. S5692) and 6 µl (8 µl for negative controls) to yield a total volume of 20 µl per well. Final concentrations calculated to 1 µM for H-2K^b:IgG fusion protein, 100 µM for the peptides/peptide fragments and 1× SYPRO Orange. Fluorescence intensity was measured using the Applied Biosystems ROX preset with respective excitation/emission maxima at 587/607 nm, while heating the wells continuously from 25°C to 99°C with a ramp rate of 1% (temperature increase of 1.5°C per minute). Results were recorded by StepOne 2.2.2 software and analyzed by identifying the local minimum of the derivative of the melting curve for the segment relevant for denaturation of the peptide-binding superdomain (α1,2) of the MHC-I heavy chain.

Melting point shift of peptide-MHC-I complex (melting curves) | Substance
significant melting point shift | SIINFE [synthesized SIINFEKL fragment]
significant melting point shift | SIINFEK [synthesized SIINFEKL fragment]

More lines, now with the values behind:

Substance | Melting point shift of peptide-MHC-I complex (melting curves)
IINFEKL [synthesized SIINFEKL fragment] | significant melting point shift
INFE [synthesized SIINFEKL fragment] | no melting point shift
INFEKL [synthesized SIINFEKL fragment] | significant melting point shift
SIINF [synthesized SIINFEKL fragment] | significant melting point shift
